Structures can show the parent of a compound that is named as a salt.
target: T1, A/M2 protein (IonGate S31) (Influenza A virus, UniProt P0DOF5); assay: Cell-free electrophysiology of M2 proton channels on solid supported membranes (SSM, IonGate SURFE2R); type: biochemical; settings: 25 μM compound, activation by pH jump 7.0 to 6.0, % inhibition=100×(1−I/Io), hydrochloride, 25 µM
T1 construct: expressed in transfected cells; host or cells: CHO cell membranes
T1 sequence (P0DOF5 whole entry): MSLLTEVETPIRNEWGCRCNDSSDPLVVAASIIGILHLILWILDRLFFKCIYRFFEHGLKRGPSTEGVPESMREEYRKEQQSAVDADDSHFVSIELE

Row | SMILES | IonGate S31 (% Inhibition Range at 25 μM)
1 | NC12CC3CC(CC(C(F)F)C(C3)C1)C2 (stereo not drawn) [Example 10, exo-4-(difluoromethyl)tricyclo[4.3.1.1^3,8]undecan-1-amine hydrochloride] | B (11-50% (B))
2 | NC12CC3CC(CC(C(F)F)C(C3)C1)C2 (stereo not drawn) [Example 11, endo-4-(difluoromethyl)tricyclo[4.3.1.1^3,8]undecan-1-amine hydrochloride] | A (51-95% (A))

same assay, conditions: 25 μM compound, activation by pH jump 7.0 to 6.0, % inhibition=100×(1−I/Io), read-out: IonGate S31 (% Inhibition Range at 25 μM)

Row | SMILES | inhibition at 25 µM
3 | NC12CC3CC(C1)NC(=O)C(C3)C2 (centres unmarked) [Example 14, 1-amino-4-azatricyclo[4.3.1.1^3,8]undecan-5-one hydrochloride] | 1 to 10%
4 | NC12CC3CC(CC(C1)C(I)C3)C2 (centres unmarked) [Example 5, 4-iodotricyclo[4.3.1.1^3,8]undecan-1-amine hydrochloride] | 11 to 50%
5 | NC12CC3COC(CC(C3)C1)C2 (centres unmarked) [Example 16, 4-oxatricyclo[4.3.1.1^3,8]undecan-1-amine hydrochloride] | 11 to 50%
6 | NC12CC3CC(C1)OC(=O)C(C3)C2 (centres unmarked) [Example 13, 1-amino-4-oxatricyclo[4.3.1.1^3,8]undecan-5-one hydrochloride] | 1 to 10%
7 | NC12CC3CC(CC(C1)C(F)C3)C2 (stereo not drawn) [Example 3, endo-4-fluorotricyclo[4.3.1.1^3,8]undecan-1-amine hydrochloride] | 51 to 95%
8 | NC12CC3CC(=NO)C(CC(C3)C1)C2 (centres unmarked) [Example 12, 1-aminotricyclo[4.3.1.1^3,8]undecan-4-one oxime hydrochloride] | 1 to 10%
9 | NC12CC3CNC(CC(C3)C1)C2 (centres unmarked) [Example 15, 4-azatricyclo[4.3.1.1^3,8]undecan-1-amine dihydrochloride] | 11 to 50%
10 | NC12CC3CC(CC(C1)C(O)C3)C2 (stereo not drawn) [Example 1, exo-1-aminotricyclo[4.3.1.1^3,8]undecan-4-ol hydrochloride] | 11 to 50%
11 | N#CC1CC2CC3CC1CC(N)(C2)C3 (stereo not drawn) [Example 8, exo-1-aminotricyclo[4.3.1.1^3,8]undecane-4-carbonitrile hydrochloride] | 51 to 95%

Source: patent publication US8691808B2, “Antiviral compounds and their methods of use” (Influmedix, Inc., priority 2011, dated 2014)
